According to publication PMC6986443, “T‐495, a novel low cooperative M1 receptor positive allosteric modulator, improves memory deficits associated with cholinergic dysfunction and is characterized by low gastrointestinal side effect risk” (Pharmacology Research & Perspectives, 2020):

Assays:
human M1R [1] = target: T1, human M1R (Homo sapiens, UniProt P11229); test: Ca2+ mobilization assay, PAM activity (with EC20 ACh), CHO‐K1 cells; format: cell-based; design: expressed in transfected cells; host or cells: CHO-K1
T1 sequence (P11229 1-460): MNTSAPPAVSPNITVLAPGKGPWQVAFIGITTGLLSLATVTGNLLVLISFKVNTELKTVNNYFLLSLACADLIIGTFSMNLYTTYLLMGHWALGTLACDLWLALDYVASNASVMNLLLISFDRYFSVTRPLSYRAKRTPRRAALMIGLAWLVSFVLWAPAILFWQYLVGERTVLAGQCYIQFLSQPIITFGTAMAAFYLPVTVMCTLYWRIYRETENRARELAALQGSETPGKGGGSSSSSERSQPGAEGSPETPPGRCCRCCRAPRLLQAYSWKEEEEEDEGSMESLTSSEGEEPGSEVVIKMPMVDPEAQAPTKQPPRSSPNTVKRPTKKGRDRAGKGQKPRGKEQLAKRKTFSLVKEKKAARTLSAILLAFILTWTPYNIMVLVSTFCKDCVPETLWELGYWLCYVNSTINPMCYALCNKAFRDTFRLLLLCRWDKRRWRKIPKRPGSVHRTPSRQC
Method: Chinese hamster ovary (CHO)‐K1 cells expressing M1R–M5R were plated on a 96‐well black, clear bottom plate at 30 000 cells/well and incubated at 37°C in an atmosphere of 5% CO2 for 1 day. On the day of the assay, cells were incubated with calcium dye buffer (Hanks’ Balanced Salt Solution (HBSS) containing 20 mmol/L HEPES, 0.1% fatty acid‐free bovine serum albumin (BSA), 0.08% pluronic F127 (Dojindo Laboratories), 2.5 μg/mL Fluo‐4 (Dojindo Laboratories), and 1.25 mmol/L probenecid (Dojindo Laboratories)) for 30 minutes at 37°C in an atmosphere of 5% CO2 and then incubated for 30 minutes at room temperature. To measure Ca^2+ mobilization using CellLux (PerkinElmer), cells were stimulated with T‐495 or MK‐7622 (0.01‐1000 nmol/L for PAM activity; 0.3‐10 000 nmol/L for agonist activity) in assay buffer (HBSS containing 20 mmol/L HEPES and 0.1% fatty acid‐free BSA) with or without an EC20 concentration of ACh. The inflection point (IP) and EC50 values were calculated using the following equation by GraphPad Prism 5 software (GraphPad Software Inc): Y=Bottom+(Top-Bottom)/1+10^(Log IPorEC50-X×HillSlope))
where X and Y are the log concentration of a compound and the percentage of Ca^2+ response, respectively, and Top and Bottom are the upper and lower plateaus, respectively.

[2] = test system: IP1 production in the mouse hippocampus; test: In vivo IP1 assay after repeated administration for 13 days; conditions: for Basal IP1 level in the mouse hippocampus: after repeated treatment 10 mg/kg p.o. for 13 days, mean ± SEM, n = 10; for magnitude of IP1 increase in mouse hippocampus after 13 days of pretreatment: pretreatment 10 mg/kg p.o. once daily, vs single administration
Method: (§1) Eight‐week‐old Long‐Evans rats, 8‐ to 9‐week‐old C57BL/6J mice, and 22‐ or 29‐week‐old M1R KO mice and their WT littermates were used in this study. On the day of the experiment, animals were placed in individual cages and acclimated for more than 1 hour. A test compound or vehicle was administered 2 hours before the animals were sacrificed. […] LiCl (10 mmol/kg, s.c.) was injected 1 hour before sacrifice. In the repeated administration study, a test compound was administered to mice once daily for 13 days; on day 14, animals were treated with a test compound and LiCl (10 mmol/kg, s.c.) and then sacrificed. Animals were killed by decapitation, and blood was collected into tubes containing ethylenediaminetetraacetic acid for pharmacokinetic analysis; brains were quickly dissected, frozen on dry ice, and stored at −80°C until analysis. Brain tissues were homogenized in 19 (for rat tissues) or 39 (for mouse tissue) volumes of homogenization buffer (10 mmol/L HEPES pH 7.4, 50 mmol/L LiCl, 150 mmol/L NaCl, and 1% Triton X‐100), and the homogenate was incubated on a rotator for 1 hour, followed by centrifugation. The supernatant was diluted with 39 (for rat tissues) or 19 (for mouse tissues) volumes of dilution buffer (10 mmol/L HEPES pH 7.4, 50 mmol/L LiCl, and 150 mmol/L NaCl). IP1 and protein concentrations in the diluted supernatant were measured using IP‐One HTRF assay kit (Cisbio Bioassays) and BCA Protein Assay Kit (Thermo Fisher Scientific Inc), respectively, according to the manufacturers’ instructions. IP1 production was expressed as the ratio of IP1 to protein concentrations.

[3] = Concentrations in rat plasma and brain (IP1 study); format: in vivo; conditions: Long-Evans, po, mean ± SD; for Kp at 2 h: brain/plasma, read-out: Kp (brain‐to‐plasma concentration ratio)
Method: as §1

[4] = Concentrations in plasma and brain of wild-type and M1R KO mice; format: in vivo; conditions: mouse, po; for concentration at 2 h: mean ± SD; for Kp at 2 h: brain/plasma
Method: as §1

human M1R [5] = target: T1, human M1R; test: [3H]‐pirenzepine binding assay (cooperativity, allosteric ternary complex model); design: expressed in transfected cells; conditions: between PAM and ACh; for Cooperativity Log α: 95% confidence intervals in parentheses
Method: Cell membranes from FreeStyle 293 cells transiently expressing human M1R were incubated with T‐495 or MK‐7622 (0.1‐30 μmol/L), ACh (0.003‐3000 μmol/L), and 4 nmol/L [^3H]‐pirenzepine (PerkinElmer) in assay buffer (20 mmol/L HEPES, 100 mmol/L NaCl, 10 mmol/L MgCl2, and 0.1% fatty acid free BSA) for 2 hours at room temperature. The binding was terminated by filtration through GF/C filter plates (PerkinElmer) using a cell harvester (PerkinElmer) and five washed with 300 μL of 50 mmol/L Tris‐HCl. The GF/C plates were dried at 42°C; then, 25 μL of microscint 0 (PerkinElmer) was added. Radioactivity was counted using Topcount (PerkinElmer). Nonspecific binding was defined in the presence of 10 μmol/L atropine. To calculate the cooperativity of a PAM, the [^3H]‐pirenzepine binding assay data were fitted to the allosteric ternary complex model,35 using GraphPad Prism 5 software: Y=C/KC+αBC[B][C]/KBKC/1+A/KA+B/KB+C/KC+αAB[A][B]/KAKB+αBC[B][C]/KBKC
where Y is the fractional specific [^3H]‐pirenzepine binding; [A], [B], and [C] are the concentrations of ACh, a PAM, and [^3H]‐pirenzepine, respectively; K A, K B, and K C are the equilibrium dissociation constants of ACh, a PAM, and [^3H]‐pirenzepine, respectively; and αAB and αBC are the cooperativities between a PAM and ACh or [^3H]‐pirenzepine, respectively.

[6] = brain (hippocampus), rat hippocampus, 3 mg/kg p.o., read-out: Brain concentration
[7] = brain (hippocampus), rat hippocampus, 10 mg/kg p.o., read-out: Brain concentration
[8] = plasma, rat, 3 mg/kg p.o., n = 6, read-out: Plasma concentration
[9] = plasma, rat, 10 mg/kg p.o., n = 6, read-out: Plasma concentration

SMILES	EC50 (human M1R [1]) [nM]	Basal IP1 level in the mouse hippocampus [2] [nmol/mg protein]	magnitude of IP1 increase in mouse hippocampus after 13 days of pretreatment [2]	concentration at 2 h [3, 6] [ng/g]	concentration at 2 h [3, 7] [ng/g]	Kp at 2 h ([3]; rat, 3 mg/kg p.o.)	Kp at 2 h ([3]; rat, 10 mg/kg p.o.)	concentration at 2 h [3, 8] [ng/mL]	concentration at 2 h [3, 9] [ng/mL]	Cooperativity α (human M1R [5])	Cooperativity Log α (human M1R [5])	other results
Cc1ccc(Cc2cc3c(=O)n([C@H]4CCCC[C@@H]4O)cnc3c3ccccc23)cn1 [MK‐7622, 3‐((1S,2S)‐2‐hydroxycyclohexyl)‐6‐((6‐methylpyridin‐3‐yl)methyl)benzo[h]quinazolin‐4(3H)‐one, reference compound]	1.32	0.99± 0.05	comparable to those after single administration	39.3 ± 5.6	220 ± 72.2	0.19 ± 0.04	0.23 ± 0.02	218 ± 42.9	944 ± 246	511	2.71 (2.48‐2.94)	concentration at 2 h ([3]; brain (hippocampus), rat hippocampus, 1 mg/kg p.o., read-out: Brain concentration): 14.5 ± 6.3 ng/g; Kp at 2 h ([3]; rat, 1 mg/kg p.o.): 0.14 ± 0.04; concentration at 2 h ([3]; plasma, rat, 1 mg/kg p.o., n = 6, read-out: Plasma concentration): 99.2 ng/mL; concentration at 2 h ([4]; brain (hippocampus), 20 mg/kg, M1R KO mice hippocampus, 20 mg/kg p.o., read-out: Brain concentration): 456 ± 85.8 ng/g; concentration at 2 h ([4]; brain (hippocampus), 20 mg/kg, wild-type mice hippocampus, 20 mg/kg p.o., read-out: Brain concentration): 582 ± 133 ng/g; Kp at 2 h ([4]; 20 mg/kg, M1R KO mice, 20 mg/kg p.o.): 0.21; Kp at 2 h ([4]; 20 mg/kg, wild-type mice, 20 mg/kg p.o.): 0.26; concentration at 2 h ([4]; plasma, 20 mg/kg, M1R KO mice, 20 mg/kg p.o., n = 10, read-out: Plasma concentration): 2190 ± 312 ng/mL; concentration at 2 h ([4]; plasma, 20 mg/kg, wild-type mice, 20 mg/kg p.o., n = 10, read-out: Plasma concentration): 2240 ± 376 ng/mL
Cc1c(Cc2ccc(Cl)nc2)cc2c(c1Cl)OCN([C@H]1CCC[C@@H]1O)C2=O [T‐495, 8‐chloro‐6‐((6‐chloropyridin‐3‐yl)methyl)‐3‐((1S,2S)‐2‐hydroxycyclopentyl)‐7‐methyl‐2,3‐dihydro‐4H‐1,3‐benzoxazin‐4‐one]	2.29	1.09± 0.03	comparable to those after single administration	66.2 ± 18.5	304 ± 82.8	1.4 ± 0.1	1 ± 0.1	49.6 ± 14.5	298 ± 75.2	170	2.23 (2.07‐2.40)	concentration at 2 h ([3]; brain (hippocampus), rat hippocampus, 30 mg/kg p.o., read-out: Brain concentration): 1000 ± 330 ng/g; Kp at 2 h ([3]; rat, 30 mg/kg p.o.): 1 ± 0.1; concentration at 2 h ([3]; plasma, rat, 30 mg/kg p.o., n = 6, read-out: Plasma concentration): 1050 ± 358 ng/mL; concentration at 2 h ([4]; brain (hippocampus), 10 mg/kg, M1R KO mice hippocampus, 10 mg/kg p.o., read-out: Brain concentration): 856 ± 78.4 ng/g; concentration at 2 h ([4]; brain (hippocampus), 10 mg/kg, wild-type mice hippocampus, 10 mg/kg p.o., read-out: Brain concentration): 1030 ± 145 ng/g; Kp at 2 h ([4]; 10 mg/kg, M1R KO mice, 10 mg/kg p.o.): 0.55; Kp at 2 h ([4]; 10 mg/kg, wild-type mice, 10 mg/kg p.o.): 0.62 ± 0.1; concentration at 2 h ([4]; plasma, 10 mg/kg, M1R KO mice, 10 mg/kg p.o., n = 10, read-out: Plasma concentration): 1590 ± 266 ng/mL; concentration at 2 h ([4]; plasma, 10 mg/kg, wild-type mice, 10 mg/kg p.o., n = 10, read-out: Plasma concentration): 1690 ± 280 ng/mL
